Experimental data published in patent US20130345163A1, “BIOLOGICAL MARKER FOR INFLAMMATION” (CAN-FITE BIOPHARMA LTD., priority 2004, published 2013).

Experiments:
[1] = test system: Adjuvant Induced Arthritis (AIA) rats; experiment: Adjuvant induced arthritis (AIA) model in rats, clinical disease activity score; format: in vivo, rat; conditions: CF101 10 μg/kg orally twice daily from day 14 after immunization, MTX 1.5 mg/kg intraperitoneally every 3 days from day 14, vs vehicle
Protocol: (§1) Female Lewis rats, aged 8-12 weeks were obtained from Harlan Laboratories (Jerusalem, Israel). Rats were maintained on a standardized pelleted diet and supplied with tap water. Experiments were performed in accordance with the guidelines established by the Institutional Animal Care and Use Committee at Can-Fite BioPharma, Petah Tikva, Israel. The rats were injected subcutaneously (SC) at the tail base with 100 μl of suspension composed of incomplete Freund's adjuvant (IFA) with 10 mg/ml heat killed Mycobacterium tuberculosis, (Mt) H37Ra, (Difco, Detroit, USA). Each group contained 10 animals.
(§2) Treatment with IB-MECA (10 μg/kg) was initiated on day 14 after vaccination and was orally administered by gavage, twice daily. Another group was treated with Methotrexate (MTX) (1.5 mg/kg) intraperitoneally every 3 days, starting on day 14th after vaccination. The control group in each experiment received vehicle only (DMSO in a dilution corresponding to that of the drugs).
Clinical Disease Activity Score was assessed as follows: the animals were inspected every second day for clinical arthritis. […] The clinical score was calculated by adding the four individual legs' score. The inflammatory intensity was also determined in accordance with the increase in the rat hind paw's diameter, measured by caliper (Mitotoyo, Tokyo, Japan).

A3AR [2] = experiment: A3AR level in peripheral blood mononuclear cells of RA patients by Western blot; format: in vivo, human
Protocol: Protein concentrations were determined using the Bio-Rad protein assay dye reagent. Equal amounts of the sample (50 μg) were separated by SDS-PAGE, using 12% polyacrylamide gels. […] Bands were recorded using BCIP/NBT color development kit (Promega, Madison, Wis., USA).

RA patients = experiment: Clinical study of CF101 in RA patients, ACR response; format: in vivo, human
Protocol: Blood was withdrawn from RA patients who were enrolled in a clinical study sponsored by Can-Fite BioPharma, in which the effect of CF101, a clinical grade IB-MECA, on arthritic patients was evaluated. The patients randomly received 0.1, 1.0 or 4.0 mg of CF101 twice daily. Blood was withdrawn at 2 time points: (a) after a washout period of 4-6 weeks from a previous treatment and before CF101 treatment was initiated—this was considered as baseline level; (b) after 3 months of treatment with CF101. Peripheral blood mononuclear cells were separated and protein was extracted as described above. In addition, C reactive protein (CRP) values, the number of tender and swollen joints, the physicians global assessment, the patient own assessment, the pain score and the disability score were recorded and the ACR score was calculated for each patient (ACR is a score that is calculated according to criteria established by the American College of Rheumatology, based on the aforementioned measures, to evaluate the effectiveness of drugs for treatment of RA; ACR 20, ACR 50 and ACR 70 respectively represent a 20%, 50% and 70% improvement in this score).

A3AR [3] = experiment: A3AR protein expression level by Western blot in tissues of AIA rats; format: in vivo, rat
Protocol: as §1, §2
The hind paws were dissected above the ankle joint. The bony tissue was broken into pieces, snap frozen in liquid nitrogen and stored at −80° C. until use. To prepare a protein extract, RIPA buffer (containing 150 mM NaCl, 50 mM Tris, 1% NP40, 0.5% Deoxycholate and 0.1% SDS) was added to the paw tissue (4 ml/gr of tissue). The mixture was homogenized on ice with a polytron and centrifuged.
Synovial tissue was removed and synovial cells were separated by incubating the tissue in RPMI containing 1 mg/ml Collagenase IV and 0.1 mg/ml DNase with a vigorous shaking (200 rpm) at 37° C. for 30 min. The supernatant containing the synovial cells was collected and the undigested tissue was re-extracted. The supernatants from both extractions were combined and cells were washed with PBS. Protein extracts were prepared. […]
Western blot analysis (WB) of synovial, paw, spleen and lymph nodes were carried out according to the following protocol. […] Protein concentrations were determined using the Bio-Rad protein assay dye reagent. […] Bands were recorded using BCIP/NBT color development kit (Promega, Madison, Wis., USA).

[4] = out of 17 RA patients, 3 months of CF101

Compound | disease severity evaluated by the arthritis clinical score [1] | A3AR level in PBMNC of non-responders (A3AR [2]; after 3 months CF101 treatment vs baseline) | A3AR level in PBMNC of ACR 50 and ACR 70 responders (A3AR [2]; after 3 months CF101 treatment vs baseline (initial high level)) | responders with ACR 20 only response (RA patients; [4]) | responders with ACR 50 response (RA patients; [4]) | responders with ACR 70 response (RA patients; [4]) | non-responders (not even an ACR 20 response) (RA patients; out of 17 RA patients, 3 months of CF101 0.1, 1.0 or 4.0 mg twice daily) | other parameters, particularly number of swollen and tender joints, in patient no. 1517 (RA patients; single RA patient with no ACR response (CRP change below 0%), 3 months of CF101) | A3AR expression level in peripheral hematopoietic tissues (spleen and lymph node) (A3AR [3]; AIA rats treated with IB-MECA, low in naïve animals, high in AIA) | A3AR protein expression level in inflammatory tissues (paw & synovial) (A3AR [3]; AIA rats, upon IB-MECA treatment vs untreated AIA) | level of the A3AR in PBMNCs (A3AR [2]; 4 RA patients, prior to vs after onset of treatment with methotrexate) | A3AR expression profile in lymph nodes (LN) (A3AR [3]; AIA rats treated with MTX, compared with pattern seen with IB-MECA)
CNC(=O)[C@H]1O[C@@H](n2cnc3c(NCc4cccc(I)c4)ncnc32)[C@H](O)[C@@H]1O [CF101, N^6-(3-iodobenzyl)-adenosine-5′-N-methyluronamide] | significant decrease | essentially no change | reduced | 4 patients | 5 patients | 3 patients | 5 patients | very significant improvement | low expression | down-regulated |  | 
CN(Cc1cnc2nc(N)nc(N)c2n1)c1ccc(C(=O)N[C@@H](CCC(=O)O)C(=O)O)cc1 [methotrexate, reference compound] | significant decrease |  |  |  |  |  |  |  |  |  | increase | a similar A3AR expression profile was observed
